Test results taken from patent US20210181180A1, “METHOD FOR IDENTIFYING MALODOUR COUNTERACTANTS” (TAKASAGO INTERNATIONAL CORPORATION, priority 2016, published 2021).

Target: T1, OR4E2 (Homo sapiens, UniProt Q8NGC2, Q234R/V118M)
T1 construct: expressed in transfected cells; host or cells: HEK293T cells expressing hRTP1s, transiently transfected with pcDNA5-OR4E2 and pNL(NlucP/CRE/Hygro)
T1 sequence (Q8NGC2 1-313 V118M/Q234R): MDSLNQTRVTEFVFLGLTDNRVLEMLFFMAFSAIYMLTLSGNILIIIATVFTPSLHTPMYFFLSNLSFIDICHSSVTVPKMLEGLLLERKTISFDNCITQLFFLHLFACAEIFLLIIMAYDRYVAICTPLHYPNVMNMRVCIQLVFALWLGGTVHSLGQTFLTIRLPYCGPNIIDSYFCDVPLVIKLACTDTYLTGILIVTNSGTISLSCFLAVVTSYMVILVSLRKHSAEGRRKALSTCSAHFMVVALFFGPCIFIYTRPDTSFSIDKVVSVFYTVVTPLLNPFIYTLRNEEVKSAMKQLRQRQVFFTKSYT
Experiment: OR4E2 CRE-NanoLuc luciferase reporter assay in transiently transfected HEK293T cells
Assay type: cell-based
Settings: for response of OR4E2 to increasing concentrations of sulphur odorant (OR4E2 activation): seven concentrations 3-300 μM, 4 hours stimulation, luciferase activity, FIGS. 1A and 1B
Protocol: The experiments were performed using HEK293T cells (available e.g. from GE Healthcare) […] expressing the auxiliary protein hRTP1s, essential for efficient receptor trafficking to the plasma membrane (NPL 10, NPL 11; and NPL 12). The cell line was maintained in Dulbecco's modified Eagle Medium (DMEM, Euroclone) supplemented with 10% FBS (Fetal Bovine Serum, Euroclone cat. ECS0180L), 1% Penicillin/Streptomycin (Euroclone cat. B3001D), 50 μg/mL G418, […], and 10 μg/mL Zeocin.
The cDNA for OR4E2 was generated by custom gene synthesis (LifeTechnologies). The receptor DNA was then subcloned in frame 3′ from a transmembrane, localization epitope into a pcDNA5 expression vector (NPL 13). The correct identity of the receptor was checked by automated sequencing.
All sulphur odorants were prepared as 100 mM stock solutions using DMSO as a solvent and stored at −20″C. Copper(II) sulfate was prepared as an aqueous 30 mM stock solution. […]
The cDNA for the OR4E2 receptor was co-transfected with pNL(NlucP/CRE/Hygro) (Promega). […] The enzyme is about 100-fold brighter than either firefly (Photinus pyralis) or Renilla reniformis luciferase using a novel substrate, furimazine, to produce high intensity, glow-type luminescence. […]
24 hours post-transfection the medium was removed from the transfected cells and 30 μL of Tyrode's buffer containing the diluted sulphur odorant were added over 4 hours at 37° C. The cells were then transferred into an automated fluorometric imaging plate reader (FLIPR Tetra (registered trademark), Molecular Devices). […]
The data obtained from different well replicates (n=4) were analysed with Excel, ScreenWorks, and SigmaPiot 11, The responses of the receptor to the sulphur odorants were divided by the mean responses of the receptor towards Tyrode's buffer (fold of change: FOC). The mean and standard deviation of the resulting FOC values were calculated and plotted in vertical bar charts or concentration-response curves fitted by the SigmaPlot 11 software. […]

Row | response of OR4E2 to increasing concentrations of sulphur odorant (OR4E2 activation) | SMILES | OR4E2 activator (used at 300 μM as activating sulphur odorant in Example 2)
1 | – | CSCSC [2,4-dithiapentane] | OR4E2 activator
2 | positive effect | CC(C)(S)CCO [3-mercapto-3-methylbutanol] | –
3 | positive effect | C=CCSSSCC=C [diallyl trisulfide] | –
